According to patent US11691949B2, “Quinoline sulfonamide compounds and their use as antibacterial agents” (OTAGO INNOVATION LIMITED, priority 2017, dated 2023):
≈ marks a conversion by molar mass, not a printed value. Where two headings read alike, the source gives them in different places.

Experiments:
Format in all cases: cell-based
[1] = tested on: S. aureus ATCC 6538; assay: MIC by broth microdilution, S. aureus; conditions: Staphylococcus aureus, read-out: S. aureus ATCC 6538 MIC
Method: (§1) Antibacterial susceptibility testing was performed in triplicate (biological) by measuring minimum inhibitory concentrations (MICs) by broth microdilution in 96-well flat bottom microtiter plates (ThermoFisher Scientific, New Zealand). S. uberis ATCC 19436, S. aureus ATCC 6538, or E. coli ATCC 10596 cells grown overnight were diluted to an OD600 of approximately 0.025, so that the final concentration of cells in the MIC assay was approximately 5×10^5 cfu/mL in media as follows: S. uberis; Todd Hewitt Broth (THB), S. aureus; Tryptic Soy Broth (TSB) and Cation Adjusted Muller Hinton Broth (CAMHB), and E. coli; Lysogeny Borth (LB) and CAMHB, before being dispensed into microtiter wells. As required additional sterile Zinc Sulphate (Heptahydrate) was supplemented into the media, so the final concentration was 50 μM. Test compounds were added to starting wells and two-fold serial dilutions were undertaken to generate a range of inhibitor concentrations at a final volume of 200 μl. Media and test compound-free (untreated) controls were included in each microtiter plate in triplicate. After 24 h incubation at 37° C. and 200 rpm, the OD600 of wells were read using a Varioskan Flash plate reader (ThermoFisher Scientific, New Zealand). The MIC was reported as the lowest concentration of the test compound for which no growth occurred, as determined by OD600 readings. The minimum bactericidal concentration (MBC) was determined using the Miles-Misra drop-plate method to measure the viability of cells in response to test compound challenge.

[2] = tested on: E. coli ATCC 10596; assay: MIC by broth microdilution, E. coli; conditions: Escherichia coli, read-out: E. coli ATCC 10536 MIC
Method: as §1

[3] = tested on: S. uberis ATCC 19436; assay: MIC by broth microdilution, S. uberis; conditions: Streptococcus uberis, read-out: S. uberis ATCC 19436 MIC
Method: as §1

[4] = ATCC 10536 / ATCC 10596, No Zinc
[5] = ATCC 10536 / ATCC 10596, Zinc (50 μM)

| Structure (SMILES) | MIC ([1]; ATCC6538, No Zinc) [µg/mL] | MIC ([1]; ATCC6538, Zinc (50 μM)) [µg/mL] | MIC [2, 4] [µg/mL] | MIC [2, 5] [µg/mL] | MIC ([3]; ATCC19436, No Zinc) [µg/mL] | MIC ([3]; ATCC19436, Zinc (50 μM)) [µg/mL] |
| --- | --- | --- | --- | --- | --- | --- |
| Cc1ccc(S(=O)(=O)Nc2cccc3ccc(CN(C)C)nc23)cc1 [ZDR062, N-(2-((Dimethylamino)methyl)quinolin-8-yl)-4-methylbenzenesulfonamide] | 256 (≈ 720 µM) | > 256 | > 256 | > 256 | 256 (≈ 720 µM) | 0.25 (≈ 0.703 µM) |
| CN(C)Cc1ccc2cccc(NS(=O)(=O)c3ccc([N+](=O)[O-])cc3)c2n1 [ZDR067, N-(2-((Dimethylamino)methyl)quinolin-8-yl)-4-nitrobenzenesulfonamide] | 128 (≈ 331 µM) | 256 (≈ 662 µM) | > 256 | > 256 | 128 (≈ 331 µM) | 0.125 (≈ 0.323 µM) |
| CN(C)Cc1ccc2cccc(NS(=O)(=O)c3ccc(C#N)cc3)c2n1 [ZDR068, 4-Cyano-N-(2-((dimethylamino)methyl)quinolin-8-yl)benzenesulfonamide] | > 256 | > 256 | > 256 | > 256 | > 256 | 1 (≈ 2.73 µM) |
| COC(=O)c1ccc(S(=O)(=O)Nc2cccc3ccc(CN(C)C)nc23)cc1 [ZDR069, Methyl 4-(N-(2-((dimethylamino)methyl)quinolin-8-yl)sulfamoyl)benzoate] | 256 (≈ 641 µM) | > 256 | > 256 | > 256 | > 256 | 0.25 (≈ 0.626 µM) |
| CC(=O)Nc1ccc(S(=O)(=O)Nc2cccc3ccc(CN(C)C)nc23)cc1 [ZDR072, N-(4-(N-(2-((Dimethylamino)methyl)quinolin-8-yl)sulfamoyl)phenyl)acetamide] | > 256 | > 256 | > 256 | > 256 | 256 (≈ 642 µM) | 32 (≈ 80.3 µM) |
| CN(C)Cc1ccc2cccc(NS(=O)(=O)c3ccc(C(N)=O)cc3)c2n1 [ZDR073, 4-(N-(2-((Dimethylamino)methyl)quinolin-8-yl)sulfamoyl)benzamide] | > 256 | > 256 | > 256 | > 256 | > 256 | 8 (≈ 20.8 µM) |
| CN(C)Cc1ccc2cccc(NS(=O)(=O)c3ccccc3C(F)(F)F)c2n1 [ZDR075, N-(2-((Dimethylamino)methyl)quinolin-8-yl)-2-(trifluoromethyl)benzenesulfonamide] | > 256 | > 256 | > 256 | > 256 | 256 (≈ 625 µM) | 0.125 (≈ 0.305 µM) |
| CN(C)Cc1ccc2cccc(NS(=O)(=O)c3cccc(C#N)c3)c2n1 [ZDR076, 3-cyano-N-(2-((dimethylamino)methyl)quinolin-8-yl)benzenesulfonamide] | > 256 | > 256 | > 256 | > 256 | > 256 | 1 (≈ 2.73 µM) |
| CN(C)Cc1ccc2cccc(NS(=O)(=O)c3ccccc3C#N)c2n1 [ZDR077, N-(2-((Dimethylamino)methyl)quinolin-8-yl)-2-cyanobenzenesulfonamide] | > 256 | > 256 | > 256 | > 256 | > 256 | 1 (≈ 2.73 µM) |
| CN(C)Cc1ccc2cccc(NS(=O)(=O)C(F)(F)F)c2n1 [ZDR079, N-(2-((Dimethylamino)methyl)quinolin-8-yl)-1,1,1-trifluoromethanesulfonamide] | > 256 | 256 (≈ 768 µM) | > 256 | 64 (≈ 192 µM) | > 256 | 0.5 (≈ 1.5 µM) |
| CN(C)Cc1ccc2cccc(NS(=O)(=O)c3cccs3)c2n1 [ZDR080, N-(2-((Dimethylamino)methyl)quinolin-8-yl)thiophene-2-sulfonamide] | > 256 | > 256 | > 256 | > 256 | > 256 | 0.25 (≈ 0.719 µM) |
| O=S(=O)(Nc1cccc2ccc(CNCC3CC3)nc12)c1ccc(C(F)(F)F)cc1 [ZDR087, N-(2-(((Cyclopropylmethyl)amino)methyl)quinolin-8-yl)-4-(trifluoromethyl)benzenesulfonamide] | 128 (≈ 294 µM) | > 256 | 256 (≈ 588 µM) | > 256 | 256 (≈ 588 µM) | 0.25 (≈ 0.574 µM) |

Second part, the compound after the results:

| MIC ([1]; ATCC6538, No Zinc) [µg/mL] | MIC ([1]; ATCC6538, Zinc (50 μM)) [µg/mL] | MIC [2, 4] [µg/mL] | MIC [2, 5] [µg/mL] | MIC ([3]; ATCC19436, No Zinc) [µg/mL] | MIC ([3]; ATCC19436, Zinc (50 μM)) [µg/mL] | Structure (SMILES) |
| --- | --- | --- | --- | --- | --- | --- |
| > 256 | > 256 | > 256 | > 256 | > 256 | 0.25 (≈ 0.673 µM) | COc1ccc(S(=O)(=O)Nc2cccc3ccc(CN(C)C)nc23)cc1 [ZDR063, N-(2-((Dimethylamino)methyl)quinolin-8-yl)-4-methoxybenzenesulfonamide] |
| 128 (≈ 341 µM) | 256 (≈ 681 µM) | > 256 | > 256 | > 256 | 0.0625 (≈ 0.166 µM) | CN(C)Cc1ccc2cccc(NS(=O)(=O)c3ccc(Cl)cc3)c2n1 [ZDR064, 4-Chloro-N-(2-((dimethylamino)methyl)quinolin-8-yl)benzenesulfonamide] |
| 256 (≈ 712 µM) | 256 (≈ 712 µM) | > 256 | > 256 | > 256 | 0.125 (≈ 0.348 µM) | CN(C)Cc1ccc2cccc(NS(=O)(=O)c3ccc(F)cc3)c2n1 [ZDR065, N-(2-((Dimethylamino)methyl)quinolin-8-yl)-4-fluorobenzenesulfonamide] |
| 256 (≈ 602 µM) | > 256 | > 256 | > 256 | 128 (≈ 301 µM) | 0.0625 (≈ 0.147 µM) | CN(C)Cc1ccc2cccc(NS(=O)(=O)c3ccc(OC(F)(F)F)cc3)c2n1 [ZDR066, N-(2-((Dimethylamino)methyl)quinolin-8-yl)-4-(trifluoromethoxy)benzenesulfonamide] |
| > 256 | > 256 | > 256 | > 256 | > 256 | 0.5 (≈ 1.3 µM) | CC(=O)c1ccc(S(=O)(=O)Nc2cccc3ccc(CN(C)C)nc23)cc1 [ZDR070, 4-Acetyl-N-(2-((dimethylamino)methyl)quinolin-8-yl)benzenesulfonamide] |
| > 256 | > 256 | > 256 | > 256 | > 256 | 4 (≈ 9.53 µM) | CN(C)Cc1ccc2cccc(NS(=O)(=O)c3ccc(S(C)(=O)=O)cc3)c2n1 [ZDR071, N-(2-((Dimethylamino)methyl)quinolin-8-yl)-4-(methylsulfonyl)benzenesulfonamide] |
| > 256 | > 256 | 256 (≈ 625 µM) | 256 (≈ 625 µM) | > 256 | 0.0625 (≈ 0.153 µM) | CN(C)Cc1ccc2cccc(NS(=O)(=O)c3cccc(C(F)(F)F)c3)c2n1 [ZDR074, N-(2-((Dimethylamino)methyl)quinolin-8-yl)-3-(trifluoromethyl)benzenesulfonamide] |
| > 256 | > 256 | > 256 | > 256 | > 256 | 2 (≈ 7.16 µM) | CN(C)Cc1ccc2cccc(NS(C)(=O)=O)c2n1 [ZDR078, N-(2-((Dimethylamino)methyl)quinolin-8-yl)methanesulfonamide] |
| > 256 | > 256 | > 256 | > 256 | 256 (≈ 737 µM) | 0.25 (≈ 0.719 µM) | CN(C)Cc1ccc2cccc(NS(=O)(=O)c3ccsc3)c2n1 [ZDR081, N-(2-((Dimethylamino)methyl)quinolin-8-yl)thiophene-3-sulfonamide] |
| > 256 | > 256 | > 256 | > 256 | > 256 | 0.125 (≈ 0.347 µM) | Cc1noc(C)c1S(=O)(=O)Nc1cccc2ccc(CN(C)C)nc12 [ZDR082, N-(2-((Dimethylamino)methyl)quinolin-8-yl)-3,5-dimethylisoxazole-4-sulfonamide] |
| 256 (≈ 681 µM) | > 256 | 256 (≈ 681 µM) | > 256 | 128 (≈ 341 µM) | 0.0625 (≈ 0.166 µM) | CN(C)Cc1ccc2cccc(NS(=O)(=O)c3cccc(Cl)c3)c2n1 [ZDR084, 3-Chloro-N-(2-((dimethylamino)methyl)quinolin-8-yl)benzenesulfonamide] |
| 256 (≈ 602 µM) | > 256 | 256 (≈ 602 µM) | > 256 | 128 (≈ 301 µM) | < 0.125 | CN(C)Cc1ccc2cccc(NS(=O)(=O)c3cccc(OC(F)(F)F)c3)c2n1 [ZDR085, N-(2-((Dimethylamino)methyl)quinolin-8-yl)-3-(trifluoromethoxy)benzenesulfonamide] |
| 64 (≈ 152 µM) | > 256 | 128 (≈ 304 µM) | 256 (≈ 607 µM) | 64 (≈ 152 µM) | 0.25 (≈ 0.593 µM) | O=S(=O)(Nc1cccc2ccc(CNC3CC3)nc12)c1ccc(C(F)(F)F)cc1 [ZDR086, N-(2-((Cyclopropylamino)methyl)quinolin-8-yl)-4-(trifluoromethyl)benzenesulfonamide] |
